Source: ChEMBL document CHEMBL1125405, “Synthesis of alkoxy-substituted diaryl compounds and correlation of ring separation with inhibition of tubulin polymerization: differential enhancement of inhibitory effects under suboptimal polymerization reaction conditions” (J Med Chem, 1992)

Columns and labels:
[1] = molecular target: T1, Tubulin (Bos taurus, UniProt Q6B856+Q862L2+Q862F3); test: Inhibition of glutamate-dependent tubulin polymerization at 30 degrees C(0.25 mM MgCl2); assay type: functional
[2] = molecular target: T1, Tubulin; test: Concentration required to inhibit the extent of glutamate-dependent tubulin polymerization by 50% at 37 degrees C(1.0 mM MgCl2); assay type: functional
[3] = tested on: HL-60; test: Cytotoxicity of compound against HL-60 human leukemia cells; assay type: functional, cell-based
[4] = tested on: L1210; test: Compound was tested for the inhibition of murine L1210 leukemia cells growth by 50%; assay type: functional, cell-based; conditions: Mus musculus
[5] = tested on: L1210; test: Compound was tested for the inhibition of L1210 leukemia cells growth […]; assay type: functional, cell-based; conditions: Mus musculus

COc1ccc(/C=C/Cc2cc3c(cc2OC)OCO3)cc1
IC50 [1]: 3900 nM

COc1ccc(C(C)c2cc3c(cc2OC)OCO3)cc1 (stereo not given)
IC50 [1]: 2500 nM

COc1ccc(Cc2cc3c(cc2OC)OCO3)cc1
IC50 [1]: 5400 nM

CCOc1cc2c(cc1CCCc1ccc(OC)cc1)OCO2
IC50 [1]: 2700 nM

COc1ccc(CCCCc2cc(OC)c(OC)c(OC)c2)cc1O
IC50 [1]: 4400 nM
IC50 [2]: 30000 nM

COc1c(-c2ccc(OC)c(=O)cc2)ccc(C=O)c1C=O
IC50 [1]: 1200 nM
IC50 [2]: 2600 nM

COc1ccc(CCc2cc3c(cc2OC)OCO3)cc1
IC50 [1]: 8800 nM

CCOc1cc2c(cc1CCc1ccc(OC)cc1)OCO2
IC50 [1]: 3800 nM

COc1ccc(-c2cc(OC)c(OC)c(OC)c2)cc1O
IC50 [1]: > 40000 nM
IC50 [2]: > 40000 nM

COc1ccc(CCCCc2cc3c(cc2OC)OCO3)cc1
IC50 [1]: 7500 nM

CCOc1cc2c(cc1/C=C\c1ccc(OC)cc1)OCO2
IC50 [1]: > 40000 nM

CCOc1cc2c(cc1C/C=C/c1ccc(OC)cc1)OCO2
IC50 [1]: 1900 nM

COc1ccc(CCCc2cc(OC)c(OC)c(OC)c2)cc1O
IC50 [3]: 300 nM
IC50 [4]: 400 nM
IC50 [1]: 3000 nM
IC50 [2]: 11000 nM

COc1ccc(Cc2cc(OC)c(OC)c(OC)c2)cc1O
IC50 [3]: 100 nM
IC50 [4]: 200 nM
IC50 [1]: 2300 nM
IC50 [2]: 7700 nM

COc1ccc(CCc2cc(OC)c(OC)c(OC)c2)cc1O
IC50 [3]: 50 nM
IC50 [5]: 70 nM
IC50 [1]: 1600 nM
IC50 [2]: 3500 nM

CCOc1cc2c(cc1Cc1ccc(OC)cc1)OCO2
IC50 [1]: 2000 nM

CCOc1cc2c(cc1C(C)c1ccc(OC)cc1)OCO2 (stereo not given)
IC50 [1]: 1800 nM

COc1ccc(CCCc2cc3c(cc2OC)OCO3)cc1
IC50 [1]: 3800 nM
